Reference: US9714229B2, “Crystal of tetracyclic compound” (Chugai Seiyaku Kabushiki Kaisha, priority 2014, dated 2017)

Columns and labels:
[1] = Investigation on transformation of crystal form of type II crystal due to humidity (powder X-ray diffraction); assay type: physicochemical
Description: For the type I, type II, and type III crystals of a monohydrochloride of 9-ethyl-6,6-dimethyl-8-(4-morpholin-4-yl-piperidin-1-yl)-11-oxo-6,11-dihydro-5H-benzo[b]carbazole-3-carbonitrile, the powder X-ray diffraction was measured under the following conditions. The measurement results for the type II crystal, the type III crystal, and the type I crystal are shown in FIGS. 1, 2, and 3. • Measuring apparatus: X'Pert-Pro MPD (manufactured by PANalytical HV) • Anticathode: Cu • Tube voltage: 45 kV • Tube current: 40 mA • Step width: 0.02 • Scan axis: 20 • Sampling time per: 43 seconds • Scan range: 3 to 40°
In order to investigate the transformation of the crystal form of the type II crystal of the monohydrochloride of 9-ethyl-6,6-dimethyl-8-(4-morpholin-4-yl-piperidin-1-yl)-11-oxo-6,11-dihydro-5H-benzo[b]carbazole-3-carbonitrile due to humidity, samples were placed in the following humidity conditions, and changes in crystal form were investigated using the powder X-ray diffraction.
Test Conditions 1 (Investigation on Transformation of Crystal form of Type II Crystal at Low Humidity)
• Amount of sample: About 17 mq • Temperature: Constant temperature of about 25° C. • Atmospheric gas: Dry nitrogen • Flow rate of atmospheric gas: 200 sccm (ml/min) • Mass change rate: 0.002 dm/dt • Relative humidity: Samples were placed at a relative humidity of 0% RH • Minimum waiting time: 10 min • Maximum waiting time: 1200 min. Test Conditions 2 (Iinvestigation on Transformation of Crystal Form of Type II Crystal at High Humidity) • Amount of sample: About 16 mg • Temperature: Constant temperature of about 25° C. • Atmospheric s: Dry nitrogen • Flow rate of atmospheric gas: 200 sccm (ml/min) • Mass change rate: 0.002 dm/dt (%/min) • Relative humidity: Samples were placed at a relative humidity of 70% RH • Minimum waiting time: 10 min • Maximum waiting time: 1200 min

[2] = Measurement of vapor sorption isotherm of type II crystal (DVS-1); assay type: physicochemical; conditions: for weight change rate (%): about 25° C.
Description: For the type II crystal of the monohydrochloride of 9-ethyl-6,6-dimethyl-8-(4-morpholin-4-yl-piperidin-1-yl)-11-oxo-6,11-dihydro-5H-benzo[b]carbazole-3-carbonitrile (about 5 mg), the vapor sorption isotherm was measured using a dynamic vapor sorption isotherm instrument: DVS-1 (Surface Measurement Systems) under the following conditions.
• Temperature: Constant temperature of about 25° C. • Atmospheric gas: Dry nitrogen • Flow rate of atmospheric gas: 200 sccm (ml/min) • Minimum waiting time: 10 min • Maximum waiting time: 1200 min • Mass change rate: 0.002 dm/dt (% min), where the mass change rate was 0.001 dm/dt (% min) at 5, 10, 15, 55, 60, and 65% RH.
Relative humidity: Relative humidity was varied to 0, 5, 10, 15, 20, 30, 40, 50, 55, 60, 65, 70, 80, 90, 80, 70, 65, 60, 55, 50, 40, 30, 20, 15, 10, 5, and 0% RR in this order. Such variation was regarded as one cycle, and three cycles were carried out. The weight change rate (%) of the type II crystal, when the temperature environment was varied from a relative humidity of 0% RH to 90% RH at about 25° C., was 3.7% in the range of a relative humidity from 0% RH to 15% RH, 0.05% in the range of a relative humidity from 15% RH to 55% RH, 11% in the range of a relative humidity from 55% RH to 65% RH, and 0.04% in the range of a relative humidity from 65% RH to 90% RH.

time after which crystal form had returned to the original form when allowed to stand in the air ([1]; after storage at 70% RH, powder X-ray diffraction measured over time): 4 h
time to return to the original crystal form when allowed to stand in the air ([1]; after storage at low humidity (0% RH)): within one hour
relative humidity at which the crystal absorbs moisture and transforms into another crystal form containing water of crystallization (high humidity environment) ([1]; inferred from the XRPD results): ≥ 65 RH
relative humidity at which the crystal dehydrates to an anhydrate (low humidity environment) ([1]; inferred from the XRPD results): ≤ 15 % RH
weight change rate (%) ([2]; relative humidity from 0% RH to 15% RH): 3.7%
weight change rate (%) ([2]; relative humidity from 15% RH to 55% RH): 0.05%
weight change rate (%) ([2]; relative humidity from 55% RH to 65% RH): 11%
weight change rate (%) ([2]; relative humidity from 65% RH to 90% RH): 0.04%
form inferred from molecular weight and mass change rate on storage at low humidity ([2]; stored in an atmosphere of 0% RH): transformed into a monohydrochloride
SMILES: CCc1cc2c(cc1N1CCC(N3CCOCC3)CC1)C(C)(C)c1[nH]c3cc(C#N)ccc3c1C2=O [type II crystal, 9-ethyl-6,6-dimethyl-8-(4-morpholin-4-yl-piperidin-1-yl)-11-oxo-6,11-dihydro-5H-benzo[b]carbazole-3-carbonitrile]
change in crystal form on storage at low humidity ([1]; relative humidity 0% RH, about 25° C., dry nitrogen, powder X-ray diffraction (FIG. 4)): transformation into another crystal form was caused
change in crystal form on storage at high humidity ([1]; relative humidity 70% RH, about 25° C., powder X-ray diffraction (FIG. 5)): transformation into another crystal form was caused
form inferred from molecular weight and mass change rate in high humidity environment ([2]; humidity of 65% RH or more): transformed into a monohydrochloride tetrahydrate
